Where a name gives a salt, the structure may show the parent alone.
Target: T1, Dopamine beta hydroxylase (Rattus norvegicus, UniProt Q05754)
T1 construct: Samples were constituted by the right and left adrenals of each animal; from tissue; host or cells: Wistar rat adrenal glands (homogenate)
T1 sequence (Q05754 1-620): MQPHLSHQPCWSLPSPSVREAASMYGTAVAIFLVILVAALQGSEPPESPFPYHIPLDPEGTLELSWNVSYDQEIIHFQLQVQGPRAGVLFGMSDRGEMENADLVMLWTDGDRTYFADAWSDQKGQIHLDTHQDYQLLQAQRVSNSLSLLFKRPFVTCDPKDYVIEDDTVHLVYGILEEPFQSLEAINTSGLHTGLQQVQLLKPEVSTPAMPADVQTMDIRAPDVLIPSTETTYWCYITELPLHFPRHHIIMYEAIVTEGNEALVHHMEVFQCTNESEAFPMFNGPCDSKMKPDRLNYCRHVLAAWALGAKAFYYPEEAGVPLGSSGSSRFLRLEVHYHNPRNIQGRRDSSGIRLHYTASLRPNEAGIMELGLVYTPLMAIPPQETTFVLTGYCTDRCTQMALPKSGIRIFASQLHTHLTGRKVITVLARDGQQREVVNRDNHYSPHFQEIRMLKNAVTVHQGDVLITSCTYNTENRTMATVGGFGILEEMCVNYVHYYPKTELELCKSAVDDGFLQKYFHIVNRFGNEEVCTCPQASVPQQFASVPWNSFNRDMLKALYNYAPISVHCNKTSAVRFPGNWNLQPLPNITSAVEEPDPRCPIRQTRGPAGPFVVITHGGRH
Assay: DβH activity in rat adrenal gland homogenates after oral administration
Assay type: in vivo
Settings: 10 mg/kg oral; for DβH activity in ADR (% Control): rat adrenal gland homogenates, maximal within 6 h post-dose, mean±SD of 4 rats; for DβH inhibition in peripheral tissues such as ADR: rat
Method: Dopamine beta hydroxylase activity in rat adrenal gland homogenates was measured by the method of Nagatsu and Udenfriend (Nagatsu, T. and Udenfriend, S. “Photometric assay of dopamine-μ-hydroxylase activity in human blood.” Clin. Chem. 18(9) 980-983, 1972) with minor modifications. Catalase, N-ethylmaleimide, tyramine, disodium fumarate, pargyline, sodium acetate, ascorbic acid, copper sulfate and octopamine were obtained from Sigma Chemical Co., St. Louis, Mo. 63178. Test compounds were prepared in kleptose 40% at a concentration of 0.75, 2.5 or 7.5 mg/mL to be administered at a dose of 10 mg/kg. Compounds and vehicle (kleptose 40%) were administered to wistar rats and adrenals were collected 0.5 h, 1 h, 2 h, 4 h, 6 h, 8 h, 15 h and 24 h after administration. Samples were constituted by the right and left adrenals of each animal. Adrenals were stored in 200 μL of 50 mM Tris pH 7.4 at −30° C., from date of collection. The samples were homogenized and homogenates were then quantified for protein. Protein concentration was adjusted to 1.6 mg/ml. The various reagents used to make up the incubation buffer were premixed and consisted of the following components: sodium acetate buffer (1 M, pH 5.0, 6.0 mL), sodium fumarate (0.2 M, 1.5 mL), ascorbic acid (0.2 M, 1.5 mL, freshly prepared), pargyline (20 mM, freshly prepared, 1.5 mL), N-ethylmaleimide (0.2 M, 1.5 mL), catalase (55 000 U/ml, 3 mL), copper sulfate (90 μM, 1.67 mL) and ultrapure water (1.33 mL). The standard incubation mixture (total volume, 500 μL) contained: 350 μL of incubation buffer; 125 μL of protein sample (or buffer for blank reaction or standard curve). The reaction mixture was placed in water bath with shaking at 37° C. and pre-incubated for 10 minutes. Tyramine (0.4 M, 25 μL) was added and incubation proceeded for 45 minutes. The reaction contents were exposed to air. A sample of enzyme preparation (with 125 μL of protein sample) that had been added perchloric acid 2 M at the end of the pre-incubation period was used as blank. A blank for each of the tested compounds was used. For octopamine standard curve, perchloric acid 2 M was replaced by increasing concentrations of octopamine prepared in perchloric acid 2 M (0.5, 1, 2.5, 5, 7.5, 10 μg/mL, final concentration). The incubation was stopped by adding 50 μL of 2 M molar perchloric acid, and the mixture was centrifuged at 16000 g for 3 min. The supernatant fluid (500 μL) was transferred to a column (SPE cartridge ISOLUTE SCX-3, 100 mg) and centrifuged at 150 g for 2 min. The column was washed two more times with 0.5 ml of ultrapure water by centrifuging at 150 g for 2 min. The adsorbed octopamine was eluted twice with 250 μL of 4 M ammonium hydroxide by centrifuging at 150 g for 2 min. Octopamine in the eluate was then converted to p-hydroxybenzaldehyde by adding 100 μL of sodium periodate (2%) and incubating for 6 min. Excess periodate was than reduced by adding 100 μl of sodium metabisulfite (10%). Absorbance was measured at […] in a 96 well plate by use of a SpectraMAX plus 384 (Molecular Devices) with software SOFTmax® PRO Software 5.3 spectrophotometer. Absorbance was linear with octopamine concentration from 0.5 to 10 μg/mL. Dopamine beta hydroxylase activity is determined as nmol of octopamine formed/mg of protein/hour and effect of compounds is presented as % of control.

| Compound | DβH activity in ADR (% Control) | DβH inhibition in peripheral tissues such as ADR |
| --- | --- | --- |
| Cl.Fc1ccc(Cl)cc1[C@]12C[C@H]1c1c(CCN3CCOCC3)[nH]c(=S)n1C2 [Example 174, (5aS,6aR)-5a-(5-chloro-2-fluorophenyl)-1-(2-morpholinoethyl)-5,5a,6,6a-tetrahydrocyclopropa[3,4]pyrrolo[1,2-c]imidazole-3(2H)-thione hydrochloride] | 39 ± 18 % Control | inhibit DβH |
| F.Fc1ccc(Br)cc1[C@]12C[C@H]1c1c(CCN3CCOCC3)[nH]c(=S)n1C2 [Example 191, (5aS,6aR)-5a-(5-bromo-2-fluorophenyl)-1-(2-morpholinoethyl)-5,5a,6,6a-tetrahydrocyclopropa[3,4]pyrrolo[1,2-c]imidazole-3(2H)-thione hydrofluoride] | 45 ± 8 % Control | inhibit DβH |
| Fc1ccc(Br)c(F)c1[C@@H]1Cc2c(CCN3CCOCC3)[nH]c(=S)n2C1 [Example 195, (S)-6-(3-bromo-2,6-difluorophenyl)-1-(2-morpholinoethyl)-2,5,6,7-tetrahydro-3H-pyrrolo[1,2-c]imidazole-3-thione] | 21 ± 9 % Control | inhibit DβH |
| Fc1cc(F)c(F)c([C@H]2Cc3c(CCCN4CCCC4)[nH]c(=S)n3C2)c1F [Example 219, (R)-1-(3-(pyrrolidin-1-yl)propyl)-6-(2,3,5,6-tetrafluorophenyl)-2,5,6,7-tetrahydro-3H-pyrrolo[1,2-c]imidazole-3-thione hydrochloride] | 43 ± 16 % Control | inhibit DβH |
| Cn1c(CC(=O)O)c2n(c1=S)C[C@@]1(c3c(F)ccc(Cl)c3F)C[C@@H]21 [Example 231, 2-((5aS,6aR)-5a-(3-chloro-2,6-difluorophenyl)-2-methyl-3-thioxo-2,3,5,5a,6,6a-hexahydrocyclopropa[3,4]pyrrolo[1,2-c]imidazol-1-yl)acetic Acid] | 43 ± 9 % Control | inhibit DβH |
| Cl.Cn1c(CCN[C@@H]2CCOC2)c2n(c1=S)C[C@H](c1c(F)ccc(Br)c1F)C2 [Example 256, (S)-6-(3-bromo-2,6-difluorophenyl)-2-methyl-1-(2-(((R)-tetrahydrofuran-3-yl)amino)ethyl)-2,5,6,7-tetrahydro-3H-pyrrolo[1,2-c]imidazole-3-thione hydrochloride] | 44 ± 22 % Control | inhibit DβH |
| CN(C(=O)Cc1c2n(c(=S)n1C)C[C@@]1(c3c(F)ccc(Cl)c3F)C[C@@H]21)C1COC1 [Example 403, 2-((5aS,6aR)-5a-(3-chloro-2,6-difluorophenyl)-2-methyl-3-thioxo-2,3,5,5a,6,6a-hexahydrocyclopropa[3,4]pyrrolo[1,2-c]imidazol-1-yl)-N-methyl-N-(oxetan-3-yl)acetamide] | 0 ± 0 % Control | inhibit DβH |

— patent US11434242B2, “Dopamine-b-hydroxylase inhibitors” (BIAL-PORTELA & Cª, S.A., priority 2017, dated 2022)
